Measurements reported in article PMC7402526, “An in vitro quantitative systems pharmacology approach for deconvolving mechanisms of drug-induced, multilineage cytopenias” (PLoS Computational Biology, 2020).

Assays:
Assay type in all cases: cell-based, human
[1] = test system: neutrophils (neutrophil-lin); test: MLTA, Neut: concentration-response and QSP model fit; conditions: Homo sapiens, Neutrophil
Procedure: (§1) A custom optimized cytokine cocktail was developed using commercially available cytokines (Peprotech, New Jersey) to facilitate simultaneous multi-lineage differentiation and self-renewal of freeze-thawed primary human bone marrow-derived CD34+ cells in SFEM II media (cells and media from StemCell Technologies, Vancouver). Cultures were carried out in ultra-low attachment 96-well plates (Corning, New York) with test article added on day 0 and cultured at 37°C, 85% relative humidity, and 5% CO2 for six days before interrogating drug impact via 17-parameter flow cytometry.
(§2) The flow cytometry panel used to define hematopoietic subsets was composed of CD34-PECy7, CD90-PECY5, CD38-AF488, CD371-PE, CD45Ra-BV421, CD14-BV605, CD42b-AF647, CD10-PEDazzle594, CD235a-PerCPCy5.5 (BioLegend, California), CD15-BUV395, CD41a-APCH7, CD71-BV786 (BD Biosciences, California), and DAPI for dead cell exclusion (ThermoFisher, California). In short, Day 6 cells were harvested, FcR-blocked (FcR binding inhibitor, ThermoFisher), surface-stained, then analyzed in a buffer containing TruCount Control Beads using a BD LSR Fortessa SORP fitted with a high-throughput sampler (BD Biosciences, California). Data was analyzed in Diva 6.0.2 and exported to CSV where after all cell data was transformed to cell per mL then normalized on a per-donor basis to untreated control wells to determine drug impact.
(§3) Donor material was collected and cultured as described above. The number of replicate donor samples per drug ranged from 2–7 and varied per drug (S1 Table). Drug treatment was added at time 0 and cells were maintained in culture for 6 days. Concentrations tested for each drug compound are contained in S1 Table. Concentrations were selected to span a range that is clinically useful. Following treatment, cell populations were measured using flow cytometry. We extracted cell counts from flow cytometry data, normalized to bead counts, and corrected for well volume.
(§4) Each well was normalized to the average of six vehicle control wells. For drugs that were tested across multiple runs of the assay, vehicle-normalized donor data were pooled, and we used the average of these pooled data for further modeling. Normalized data used as model inputs are included in S1 Table.
(§5) We implemented drug effects using an Emax model for the drug’s effect on each cell type. The 13 maximum effect parameters (EmaxT,C) are unitless and can vary between 0 and 2 and where a subscript, C, represents one of the previously described 13 cell types. We adapted a traditional Emax model using the equations below. We interpreted EmaxT values less than or equal to one as anti-proliferative, and EmaxT values greater than one as indicating a cell-killing mechanism in addition to anti-proliferation. The relationships for these effects are included in the model using the following equations. Eq 2 describes the drug anti-proliferative effect in the net proliferation rate for a given cell type. Eq 3 describes the cell-killing EmaxCK effect.
(§6) Towards the estimation of mechanistic parameters, we considered different formulations: (a) weighting the objective value to prioritize fitting dead cells and (b) using regularization methodology to encourage a parsimonious solution. We assessed the contributions of these formulations using mean-squared error and goodness of fit plots for drugs with known mechanisms. […] Further, we used L1 regularization to penalize parameters […] to help identify a parsimonious set of parameters to explain drug effects.

[2] = test system: lymphocyte progenitors (LymP); test: MLTA, LymP: concentration-response and QSP model fit; conditions: Homo sapiens, Lymphocyte
Procedure: as §1, §2, §3, §4, §5, §6

[3] = test system: early erythroid cells (Eryth I); test: MLTA, ErythI: concentration-response and QSP model fit; conditions: Homo sapiens
Procedure: as §1, §2, §3, §4, §5, §6

[4] = test system: late erythroid cells (Eryth II); test: MLTA, ErythII: concentration-response and QSP model fit; conditions: Homo sapiens
Procedure: as §1, §2, §3, §4, §5, §6

granulocytes (Gran-lin) = test: MLTA, Gran: concentration-response and QSP model fit; conditions: Homo sapiens
Procedure: as §1, §2, §3, §4, §5, §6

[5] = test system: granulocyte-macrophage progenitor (GMPs); test: MLTA, GMPs: concentration-response and QSP model fit; conditions: Homo sapiens; QSP model parameter, sheet EC50_parameters; GMPs
Procedure: as §1, §2, §3, §4, §5, §6

MK cells (MK-lin) = test: MLTA, MK: concentration-response and QSP model fit; conditions: Homo sapiens
Procedure: as §1, §2, §3, §4, §5, §6

[6] = test system: monocyte progenitors (monocyte prog); test: MLTA, MonoP: concentration-response and QSP model fit; conditions: Homo sapiens, Monocyte
Procedure: as §1, §2, §3, §4, §5, §6

monocytes (monocyte-lin) = test: MLTA, Mono: concentration-response and QSP model fit; conditions: Homo sapiens, Monocyte
Procedure: as §1, §2, §3, §4, §5, §6

[7] = test system: hematopoietic stem cells (HSCs); test: Multi-lineage toxicity assay (MLTA), HSCs: concentration-response and QSP model fit; conditions: Homo sapiens, Hematopoietic stem cell
Procedure: as §1, §2, §3, §4, §5, §6

[8] = test system: multi-potent progenitors (MPPs); test: MLTA, MPPs: concentration-response and QSP model fit; conditions: Homo sapiens
Procedure: as §1, §2, §3, §4, §5, §6

[9] = test system: granulocyte progenitor (Gran-lin prog); test: MLTA, GranP: concentration-response and QSP model fit; conditions: Homo sapiens
Procedure: as §1, §2, §3, §4, §5, §6

B cells (B-lin) = test: MLTA, B-lin: concentration-response and QSP model fit; conditions: Homo sapiens, B-cell
Procedure: as §1, §2, §3, §4, §5, §6

EC50 ([1]; QSP model parameter, sheet EC50_parameters, Neut): 88.3 nM
EC50 ([2]; QSP model parameter, sheet EC50_parameters, LymP): 241 nM
EC50 ([3]; QSP model parameter, sheet EC50_parameters, Erythroid I, read-out: EC50ErythroidI): 1180 nM
EC50 ([4]; QSP model parameter, sheet EC50_parameters, Erythroid II, read-out: EC50ErythroidII): 173 nM
EC50 (granulocytes (Gran-lin); QSP model parameter, sheet EC50_parameters, Gran): 364 nM
EC50 [5]: 851 nM
EC50 (MK cells (MK-lin); QSP model parameter, sheet EC50_parameters, MK): 4130 nM
EC50 ([6]; QSP model parameter, sheet EC50_parameters, MonoP, read-out: EC50MonoP): 114 nM
EC50 (monocytes (monocyte-lin); QSP model parameter, sheet EC50_parameters, Mono): 264 nM
EC50 ([8]; QSP model parameter, sheet EC50_parameters, MPPs): 427 nM
EC50 ([9]; QSP model parameter, sheet EC50_parameters, GranP, read-out: EC50GranP): 176 nM
EC50 (B cells (B-lin); QSP model parameter, sheet EC50_parameters, B): 425 nM
Structure (SMILES): Cc1sc2c(c1C)C(c1ccc(Cl)cc1)=N[C@@H](CC(=O)Nc1ccc(O)cc1)c1nnc(C)n1-2 [OTX015]
Emax ([1]; 144 h, parameter from QSP model fitting, read-out: Emax_drug_Neut): 16.7%
Emax ([2]; 144 h, parameter from QSP model fitting, read-out: Emax_drug_LymP): 115%
Emax ([3]; 144 h, parameter from QSP model fitting, read-out: Emax_drug_ErythroidI): 195%
Emax ([4]; 144 h, parameter from QSP model fitting, read-out: Emax_drug_ErythroidII): 12%
Emax (granulocytes (Gran-lin); 144 h, parameter from QSP model fitting, read-out: Emax_drug_Gran): 126%
Emax (MK cells (MK-lin); 144 h, parameter from QSP model fitting, read-out: Emax_drug_MK): 26.9%
Emax ([6]; 144 h, parameter from QSP model fitting, read-out: Emax_drug_MonoP): 0.18%
Emax (monocytes (monocyte-lin); 144 h, parameter from QSP model fitting, read-out: Emax_drug_Mono): 37.5%
Emax ([7]; 144 h, parameter from QSP model fitting, read-out: Emax_drug_HSC): 40.1%
EC50 ([7]; QSP model parameter, sheet EC50_parameters, HSCs): 241 nM
Emax ([8]; 144 h, parameter from QSP model fitting, read-out: Emax_drug_MPP): 0.05%
Emax ([9]; 144 h, parameter from QSP model fitting, read-out: Emax_drug_GranP): 0.16%
Emax (B cells (B-lin); 144 h, parameter from QSP model fitting, read-out: Emax_drug_B): 76.8%
